Patent US7223888B2, “Mu opioid receptor ligands: methods of use and synthesis” (President and Fellows of Harvard College, priority 2002, dated 2007)

How the values were obtained:
hMOR-1 [1] = molecular target: T1, hMOR-1 (Homo sapiens, UniProt P35372); experiment: Opioid receptor competitive binding assay, MOR (3H-DAMGO); conditions: Ki MOR, Table 4; 3H-DAMGO, hMOR-1 stably transfected into CHO cells; errors 95% confidence interval
T1 construct: purchased Amersham Biosciences; host or cells: stably transfected CHO cells (membrane preparation)
Protocol: (§1) For selected compounds, Ki for MOR, DOR, and KOR were determined according to the following procedure: Recombinant hMOR-1 membrane preps from stably transfected CHO cells and recombinant hDOR-1 membrane preps from stably transfected HEK-293 cells were purchased from Amersham Biosciences. Guinea pig cerebellum preparations were used for KOR assays.
(§2) Each microassay from an assay plate was filtered through an individual well of a Packard GF/B 96-well filter plate (glass fiber filter) to collect the membranes. Each well was washed twice with 200 μL of ice cold wash buffer (50 mM Tris, pH 7.4). The filter plate was allowed to dry overnight, the back was sealed, and Packard Bioscience Microscint PS scintillation fluid (75 μL) was added to each well, which was then counted for ^3H for 2 minutes using a Packard Bioscience TopCount scintillation counter plate reader.
(§3) Each compound was assayed at 8 concentrations, using half-log serial dilutions. Each concentration was tested in triplicate, and the ^3H cpm were averaged.
(§4) This concentration was determined experimentally by scintillation counting an aliquot of the radioligand stock solution used in the assay.
(§5) Kd=the binding constant for the radioligand.
(§6) This triplicate experiment was repeated three times for the MOR and twice for the DOR and the KOR.

hDOR-1 = molecular target: T2, hDOR-1 (Homo sapiens, UniProt P41143); experiment: Opioid receptor competitive binding assay, DOR; conditions: for Ki: Ki DOR, Table 7, 3H-diprenorphine, hDOR-1 stably transfected into HEK-293 cells, errors two standard deviations; for Ki DOR/Ki MOR: Table 13, selectivity for MOR versus DOR (footnote: 3H-DPDPE, hDOR-1)
T2 construct: purchased Amersham Biosciences; host or cells: stably transfected HEK-293 cells (membrane preparation)
Protocol: as §1, §2, §3, §4, §5, §6

hMOR-1 [2] = molecular target: T1, hMOR-1; experiment: MOR GTP-γ-S assay (MOR activation); format: biochemical; conditions: Table 15; compound 10 mM (footnote); percentage of DAMGO induced GTP-g-35S specific binding; CHO membranes with hMOR-1
Protocol: MOR GTP-γ-S assay was run in the same 200 μL, 96 well format as the binding assay. Each microassay contained experimental compound, 0.04 nM GTP-γ-^35S, 9 μM GDP, and about 0.02 nM MOR (from stably transfected CHO cells), in assay buffer (50 mM Tris-HCl, 3 mM MgCl2, 0.2 mM EGTA, 100 mM NaCl, pH 7.4). The assays were incubated for two to three hours at room temperature, then filtered onto a filter plate. The plate was dried; scintillation fluid was added, and the wells were counted for ^35S. Blank assays were run to determine non-specific binding. […] The results were averaged; the non-specific counts were subtracted, and the resulting value was expressed as a percent of the value obtained for DAMGO. The error reported is two standard deviations from the mean of the quadruplicate experiment. The values were compared using one way Anova with Tukey's post-hoc analysis.

KOR = molecular target: T3, KOR (Cavia porcellus, UniProt P41144); experiment: Opioid receptor competitive binding assay, KOR (3H-U-69,593); set-up: species or system guinea pig; conditions: for Ki: Ki KOR, Table 10, 3H-U-69,593, guinea pig cerebellum preparation, errors two standard deviations; for Ki KOR/Ki MOR: Table 13, selectivity for MOR versus KOR
T3 construct: from tissue; host or cells: guinea pig cerebellum preparation
Protocol: as §1, §2, §3, §6

Compound	Ki (hMOR-1 [1]) [nM]	Ki (hDOR-1) [nM]	Ki DOR/Ki MOR (hDOR-1)	% GTP-γ-35S bound (hMOR-1 [2]) [%]	Ki (KOR) [nM]	Ki KOR/Ki MOR (KOR)
Cc1cc(O)cc(C)c1CC(N)C(O)C/C=C/C(O)C(Cc1ccccc1)C(=O)NC(Cc1ccccc1)C(N)=O (single isomer, unassigned) [(S,S,R,S)-25, 7-(1-Carbamoyl-2-phenyl-ethylcarbamoyl)-2,6-dihydroxy-1-(4-hydroxy-2,6-dimethyl-benzyl)-8-phenyl-oct-4-enyl-ammonium]	1.2 ± 0.4	230 ± 20	190	32 ± 5	50 ± 16	41
Cc1cc(O)cc(C)c1CC(N)C(O)C/C=C/C(O)C(Cc1ccccc1)C(=O)NCCc1ccccc1 (single isomer, unassigned) [(S,S,R,S)-26, 2,6-Dihydroxy-1-(4-hydroxy-2,6-dimethyl-benzyl)-7-phenethylcarbamoyl-8-phenyl-oct-4-enyl-ammonium]	0.64 ± 0.09	120 ± 30	190	52 ± 6	60 ± 32	94
Cc1cc(O)cc(C)c1CC(N)C(O)C/C=C/C(O)C(Cc1ccccc1)C(=O)NC(Cc1ccccc1)C(N)=O (single isomer, unassigned) [(S,S,S,R)-25, 7-(1-Carbamoyl-2-phenyl-ethylcarbamoyl)-2,6-dihydroxy-1-(4-hydroxy-2,6-dimethyl-benzyl)-8-phenyl-oct-4-enyl-ammonium]	0.17 ± 0.07	40 ± 1	230	35 ± 5	22 ± 9	130
Cc1cc(O)cc(C)c1CC(N)C(O)C/C=C/C(O)C(Cc1ccccc1)C(=O)NCCc1ccccc1 (single isomer, unassigned) [(S,S,S,R)-26, 2,6-Dihydroxy-1-(4-hydroxy-2,6-dimethyl-benzyl)-7-phenethylcarbamoyl-8-phenyl-oct-4-enyl-ammonium]	0.29 ± 0.06	99 ± 11	340	40 ± 3	42 ± 29	140
Cc1cc(O)cc(C)c1CC(N)C(O)C/C=C/C(O)C(Cc1ccccc1)C(=O)NC(CO)Cc1ccccc1 [(S,S,S,R)-27]	0.16 ± 0.06	54 ± 8		44 ± 6	69 ± 14	
Cc1cc(O)cc(C)c1CC(N)C(O)C/C=C/C(O)C(Cc1ccccc1)C(=O)OC(CO)Cc1ccccc1 [(S,S,S,R)-30, 7-(1-Benzyl-2-hydroxy-ethoxycarbonyl)-2,6-dihydroxy-1-(4-hydroxy-2,6-dimethyl-benzyl)-8-phenyl-oct-4-enyl-ammonium]	0.44 ± 0.01	17 ± 6	39	62 ± 4	85 ± 1	190
